The text below walks through data of patent US20250127913A1, “BIFUNCTIONAL FOLATE RECEPTOR BINDING COMPOUNDS” (LYCIA THERAPEUTICS, INC., priority 2021, published 2025).

The subject of assay [1] is THP-1 cells overexpressing FOLR2. In words: LYTAC mediated uptake of TNFα-Alexa647 in THP-1 WT / FOLR2 overexpressing cells (ΔMFI). More on the design: New-uptake 100 nM-% Example 46 / New-uptake 10 nm-% Example 46: unit not given here. It counts as cell-based. Particulars: for uptake of TNFα compared the no compound control (DMSO): 300 nM-0.137 nM. As for the experimental part:
Hetero-bifunctional small molecule LYTACs consisting of a TNFα binding moiety, linker and folate receptor binding moiety were tested to determine if folate receptor can internalize TNFα. THP-1 cells overexpressing FOLR2 were generated by stable transduction with lentivirus encoding FOLR2-IRES-GFP. THP-1 WT and FOLR2 overexpressing cells were maintained in RPMI (Gibco #61870143) with 10% v/v FBS (VWR #89510-188) with 2 mM L-alanyl-L-glutamine dipeptide, 100 units/ml penicillin and 100 μg/ml streptomycin (Gibco #27016021). Stable FOLR2 over-expression cells were mixed at a 50:50 ratio with WT THP-1 cells and seeded in a 96 well plate at 50,000 cells in 100 μl folate-free RPMI (Gibco […]) with 10% v/v FBS, 2 mM L-alanyl-L-glutamine dipeptide, 100 units/ml penicillin and 100 μg/ml streptomycin. In a separate 96 well plate, TNFα/folate hetero-bifunctional small molecules were mixed with unmodified TNFα conjugated with Alexa647 by non-specific lysine chemistry. Small molecule LYTACs at a concentration of 600 nM (2× final concentration) in 100 μl folate-free RPMI+10% FBS were incubated at room temperature for 30 mins. The immune complex was serially diluted 3-fold to produce a dose response range from 300 nM-0.137 nM (final concentration). The TNFα/LYTAC complex mixture was transferred to the plate containing a 50:50 mixture of THP1 WT and FOLR2 over expressing cells and incubated for 2 h at 37° C. with 5% C02. Uptake in WT and FOLR2 overexpressing cells was evaluated by flow cytometry by comparing the median fluorescence intensity of […] in the GFP negative (WT) and GFP positive (FOLR2) populations and was quantified as the difference between the mean fluorescence intensities in the APC channel for the GFP positive and GFP negative populations (ΔMFI).

The target of a further assay is TNFα (Homo sapiens (Human), UniProt P01375). In words: TNFα binding assay (time-resolved FRET, biotinylated TNFα). Particulars: 1 nM biotinylated TNFα, 80 nM probe, 16 hr incubation; read-out: TNF-HTRF-biotin. The essentials:
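Time-resolved FRET displacement of 80 nM acceptor probe from 1 nM biotinylated TNFα with 0.5 nM streptavidin-Tb in 20 mM Hepes pH 7.5, 10 mM MgCl2, 0.015% Tween-20, 0.05 mg/ml BSA, 2% DMSO. Read (ex 340, em 490/520 nm) after 16 hr. Duplicate dose responses normalized to DMSO and 100 nM reference inhibitor; IC50 by 4-parameter fit.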

Assay [2] concerns the target T1, folate receptor beta (Homo sapiens (Human), UniProt P14207). In words: Folate receptor binding assay (fluorescence polarization). Particulars: 2.5 nM folate receptor beta, 2 nM FR-Cy probe, 2 hr incubation; read-out: FOLR2-FP. The procedure, abridged:
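Fluorescence polarization competition with 2 nM folate–Cy5 probe and 2.5 nM receptor in 20 mM Hepes pH 7.5, 250 mM NaCl, Tween-20, 1% DMSO; 3-fold dilutions, 2 h incubation, ex 620/em 688 nm. Duplicates normalized to DMSO (high) and 1 μM folic acid (low); IC50 from 4-parameter fit.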

For assay [3], the target named is T1, folate receptor beta. In words: Folate receptor SPR assay (biotinylated folate receptor beta on streptavidin chip). It counts as binding. Particulars: for Rmax: biotinylated folate receptor beta on streptavidin chip; for kd / Kd / kon: multi-cycle kinetics, 25° C., 1:1 model; for Kd: read-out: FOLR2Biotin - SPR Kd; for kon: pH 7.5, read-out: ka. The procedure, abridged: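 Biotinylated receptor captured on a streptavidin SPR chip; multi-cycle kinetics at 25 °C with 8 compound concentrations (2-fold dilutions) in HEPES pH 7.5, 150 mM NaCl, 0.05% Tween 20, 2% DMSO. Association 120 s, dissociation 600 s; binding parameters from 1:1 model fit.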

For assay [4], the target named is TNFα and streptavidin immobilized FOL2R (Homo sapiens (Human), UniProt P01375+P14207). In words: Ternary complex SPR assay. Particulars: 10 nM compound, max response normalized to expected response; for TC 150 nM- tagless TNF Normalized: 150 nM untagged TNF; for TC 300 nM- tagless TNF Normalized: 300 nM untagged TNF. In kind it is binding. The procedure, abridged: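 Biotinylated folate receptor beta captured at ~1800 RU on a streptavidin chip; untagged TNF preincubated 6 hr at 25° C with 10 nM compound in HEPES pH 7.5, 150 mM NaCl, 0.05% Tween 20, 2% DMSO, then injected (110 s association, 600 s dissociation). Maximum response normalized to maximum expected response per compound.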
Chain of TNFα and streptavidin immobilized FOL2R (P14207 17-230): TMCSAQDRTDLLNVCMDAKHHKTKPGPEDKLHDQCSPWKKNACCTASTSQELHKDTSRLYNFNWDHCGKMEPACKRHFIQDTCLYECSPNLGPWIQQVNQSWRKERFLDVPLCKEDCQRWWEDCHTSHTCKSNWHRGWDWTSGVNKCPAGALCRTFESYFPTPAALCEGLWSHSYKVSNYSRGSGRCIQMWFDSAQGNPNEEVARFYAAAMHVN
Chain of TNFα and streptavidin immobilized FOL2R (P01375 77-233): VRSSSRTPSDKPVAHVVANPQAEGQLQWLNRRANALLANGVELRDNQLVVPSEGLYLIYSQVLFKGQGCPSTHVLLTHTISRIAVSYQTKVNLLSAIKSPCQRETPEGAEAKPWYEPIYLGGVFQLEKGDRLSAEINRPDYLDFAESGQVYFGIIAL

T1 sequence (P14207 17-255): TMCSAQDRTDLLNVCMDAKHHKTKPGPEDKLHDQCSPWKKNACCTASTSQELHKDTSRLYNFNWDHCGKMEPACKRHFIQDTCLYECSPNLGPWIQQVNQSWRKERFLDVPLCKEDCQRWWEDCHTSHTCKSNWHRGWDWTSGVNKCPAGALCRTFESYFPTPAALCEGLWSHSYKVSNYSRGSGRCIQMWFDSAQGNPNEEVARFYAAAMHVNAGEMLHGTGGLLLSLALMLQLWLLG
Chain of TNFα (P01375 77-233): as the sequence (P01375 77-233) above

As for `Cc1nc2cc(F)c(-c3cnc(N4CCN(C(=O)COCCn5cc(CN(CCO)CCOCCOCCOCCNC(=O)CC[C@H](NC(=O)c6ccc(NCc7cnc8nc(N)nc(O)c8n7)cc6)c6nn[nH]n6)nn5)CC4)nc3)nc2c(N[C@H](C)c2cc(C#N)ccc2F)c1Cl` [Compound I-80, 4-(((2-amino-4-hydroxypteridin-6-yl)methyl)amino)-N—((S)-3-((1-(2-(2-(4-(5-(7-chloro-8-(((R)-1-(5-cyano-2-fluorophenyl)ethyl)amino)-3-fluoro-6-methyl-1,5-naphthyridin-2-yl)pyrimidin-2-yl)piperazin-1-yl)-2-oxoethoxy)ethyl)-1H-1,2,3-triazol-4-yl)methyl)-1-hydroxy-16-oxo-19-(2H-tetrazol-5-yl)-6,9,12-trioxa-3,15-diazanonadecan-19-yl)benzamide], the “New-uptake 10 nm-% Example 46” value in assay [1] (10 nM compound, relative to Example 46 as printed (I-92 = 1.00)) was 0.89. The “New-uptake 100 nM-% Example 46” value in assay [1] (100 nM compound, relative to Example 46 as printed (I-92 = 1.00)) is 1.02. Further, the IC50 turned out to be 36 nM on TNFα and 12 nM on folate receptor beta [2].
Regarding `Cc1nc2cc(F)c(-c3cnc(N4CCN(C(=O)COCCOCCOCCOCCOCCOCCn5cc(CC[C@H](NC(=O)c6ccc(NCc7cnc8nc(N)nc(O)c8n7)cc6)C(=O)O)nn5)CC4)nc3)nc2c(N[C@H](C)c2cc(C#N)ccc2F)c1Cl` [Compound I-92], the “uptake of TNFα compared the no compound control (DMSO)” value in assay [1] (2 h) is on record as “dose-dependent uptake of TNFα”. For the same molecule, on TNFα, the IC50 was 20 nM. For the same molecule, the IC50 at folate receptor beta [2] is 7.6 nM. At folate receptor beta [3], the Rmax turned out to be 17.1 RU, the kd came to 8.7e-05 s⁻¹, the Kd was determined as 0.00867 nM and the kon is 1e+07 M⁻¹ s⁻¹. Besides, in assay [4] (60 nM untagged TNF), the “TC 60 nM taggless TNF normalized” value was determined as 15.3%. In assay [4], the “TC 150 nM- tagless TNF Normalized” value turned out to be 16.9% and the “TC 300 nM- tagless TNF Normalized” value came out at 18.7%.
For `Cc1nc2cc(F)c(-c3cnc(N4CCN(C(=O)COCCOCCOCCOCCOCCOCCn5cc(CC[C@H](NC(=O)c6ccc(OCc7ccc8nc(N)nc(O)c8c7)cc6)C(=O)O)nn5)CC4)nc3)nc2c(N[C@H](C)c2cc(C#N)ccc2F)c1Cl` [Compound I-87, (S)-2-(4-((2-amino-4-hydroxyquinazolin-6-yl)methoxy)benzamido)-4-(1-(20-(4-(5-(7-chloro-8-(((R)-1-(5-cyano-2-fluorophenyl)ethyl)amino)-3-fluoro-6-methyl-1,5-naphthyridin-2-yl)pyrimidin-2-yl)piperazin-1-yl)-20-oxo-3,6,9,12,15,18-hexaoxaicosyl)-1H-1,2,3-triazol-4-yl)butanoic acid], in assay [1] (2 h), the “uptake of TNFα compared the no compound control (DMSO)” value was “dose-dependent uptake of TNFα”. In assay [1] (Homo sapiens, ΔMFI FOLR2 overexpressing vs WT THP-1 cells, 2 h), this molecule gave an EC50 of 15.3 nM. In addition, the IC50 on TNFα was found to be 22 nM. Further, the IC50 on folate receptor beta [2] stood at 8 nM. For the same molecule, on folate receptor beta [3], the Rmax is reported as 18.7 RU, the kd was determined as 0.000692 s⁻¹, the Kd was found to be 0.035 nM and the kon is 1.97e+07 M⁻¹ s⁻¹. In assay [4], the “TC 150 nM- tagless TNF Normalized” value is given as 25.7% and the “TC 300 nM- tagless TNF Normalized” value was 32.8%.
